Data set [1] concerns PGE2 generation in rat mesangial cells. The data set can be described thus: Suppression of IL-1β/forskolin-stimulated PGE2 generation in rat renal mesangial cells. The data set is classed as cell-based. As to conditions: Rattus norvegicus, Mesangial cell, 24 h; for inhibition at 3 µM: 1 nM IL-1β plus 5 μM forskolin; for IC50: 0.1 to 3 µM, IL-1β plus forskolin, read-out: EC50 (μM), inhibition of PGE2 generation. As for the experimental part:
Rat renal mesangial cells (clone MZ B1), isolated and characterized as previously described, were cultivated in RPMI 1640 medium supplemented with 10% fetal bovine serum; 10 mM 4-(2-hydroxyethyl)-1-piperazineethanesulfonic acid (HEPES), pH 7.4; 6 µg/mL of bovine insulin; 5 µg/mL of transferrin; 5 nM sodium selenite; 100 units/mL of penicillin; and 100 µg/mL of streptomycin. The cells were incubated for 4 h in Dulbecco’s modified Eagle’s medium (DMEM) containing 10 mM HEPES, pH 7.4, and 0.1 mg/mL of fatty acid-free bovine serum albumin (BSA), prior to stimulation.
Confluent mesangial cells in 24-well plates were pretreated for 20 min with varying concentrations of inhibitors and then stimulated for 24 h in a total volume of 400 µL of DMEM containing 0.1 mg/mL of BSA, in the absence or presence of 1 nM interleukin 1β (IL-1) plus 5 μM forskolin (Fk). Thereafter, the supernatants were collected and centrifuged for 5 min at 1000× g. The PGE2 in the supernatant was quantified using an enzyme-linked immunoassay (Enzo Life Sciences, Lörrach, Germany) following the manufacturer’s recommendations.
Statistical analysis of the data was performed using one-way analysis of variance (ANOVA) followed by a Bonferroni’s post hoc test for multiple comparisons (GraphPad Prism 8.4.3., San Diego, CA, USA). The half maximal effective concentrations (EC50) of the inhibitors were calculated using the same software.

Bounds are passed on as bounds.

As for `c1ccc(CCCNc2nc3ccccc3s2)cc1` [Compound 19b, N-(3-Phenylpropyl)Benzo[d]Thiazol-2-Amine], the melting point is 99 to 102 °C. Further, in data set [1], the inhibition at 3 µM is greater than 80% and the IC50 came to 0.177 µM.

In the case of `COc1ccc(CCCNc2nc3ccccc3o2)cc1` [Compound 23b, N-(3-(4-Methoxyphenyl)Propyl)Benzo[d]Oxazol-2-Amine], the melting point lay within 85 to 87 °C. Besides, the inhibition at 3 µM in data set [1] was 79%.

In turn, `c1ccc2c(OCCNc3nc4ccccc4o3)cccc2c1` [Compound 23d, N-(2-(Naphthalen-1-yloxy)Ethyl)Benzo[d]Oxazol-2-Amine] had a melting point of 164 to 166 °C. Further, in data set [1], the inhibition at 3 µM was 45%.

The molecule `c1ccc2cc(OCCNc3nc4ccccc4s3)ccc2c1` [Compound 25a, N-(2-(Naphthalen-2-yloxy)Ethyl)Benzo[d]Thiazol-2-Amine] had a melting point of 170 to 172 °C. In data set [1], the inhibition at 3 µM was 63%.

Take `c1ccc2cc(OCCNc3nc4ccccc4o3)ccc2c1` [Compound 23c, N-(2-(Naphthalen-2-yloxy)Ethyl)Benzo[d]Oxazol-2-Amine]: the melting point was 152 to 153 °C. In addition, in data set [1], the inhibition at 3 µM was greater than 80% and the IC50 amounted to 0.894 µM.

Turning to `COC(CCc1ccccc1)Nc1nc2ccccc2s1` (centres unmarked) [Compound 18b, N-(1-Methoxy-3-Phenylpropyl)Benzo[d]Thiazol-2-Amine], in data set [1], the inhibition at 3 µM is 0%.

As to `COC(CCc1ccc2ccccc2c1)Nc1nc2ccccc2s1` (centres unmarked) [Compound 18a, N-(1-Methoxy-3-(Naphthalen-2-yl)Propyl)Benzo[d]Thiazol-2-Amine], the inhibition at 3 µM in data set [1] came out at 46%.

The molecule `COC(CCc1cccc2ccccc12)Nc1nc2ccc(OC(F)(F)F)cc2s1` (centres unmarked) [Compound 18h, N-(1-Methoxy-3-(Naphthalen-1-yl)Propyl)-6-(Trifluoromethoxy)Benzo[d]Thiazol-2-Amine] came in with a melting point of 100 to 102 °C.

Turning to `FC(F)(F)Oc1ccc2nc(NCCCc3cccc4ccccc34)sc2c1` [Compound 19h, N-(3-(Naphthalen-1-yl)Propyl)-6-(Trifluoromethoxy)Benzo[d]Thiazol-2-Amine], the melting point lay in the range of 115 to 116 °C. Moreover, in data set [1], the inhibition at 3 µM was 0%.

For the molecule `COc1ccc(CCCNc2nc3ccccc3s2)cc1` [Compound 19c, N-(3-(4-Methoxyphenyl)Propyl)Benzo[d]Thiazol-2-Amine], the melting point was 104 to 106 °C. In data set [1], the inhibition at 3 µM amounted to 62%.

Consider `COc1ccc(CCC(Nc2nc3ccccc3s2)OC)cc1` (centres unmarked) [Compound 18c, N-(1-Methoxy-3-(4-Methoxyphenyl)Propyl)Benzo[d]Thiazol-2-Amine], for which the inhibition at 3 µM in data set [1] turned out to be 0%.

In turn, `c1ccc(CCCNc2nccs2)cc1` [Compound 19f, N-(3-Phenylpropyl)Thiazol-2-Amine] registered a melting point of 83 to 84 °C. Besides, the inhibition at 3 µM in data set [1] came to 20%.

Regarding `O=C(/C=C/c1ccc2ccccc2c1)Nc1nc2ccccc2s1` [Compound 9a, (E)-N-(Benzo[d]Thiazol-2-yl)-3-(Naphthalen-2-yl)Acrylamide], the melting point fell in the range of 228 to 230 °C. The inhibition at 3 µM in data set [1] was determined as 28%.

For `O=C(Nc1nc2ccccc2s1)OCc1ccc2ccccc2c1` [Compound 16b, Naphthalen-2-ylmethyl Benzo[d]Thiazol-2-ylcarbamate], the melting point lay within 209 to 211 °C. Besides, in data set [1], the inhibition at 3 µM was 39%.

`O=C(CCCc1ccc2ccccc2c1)Nc1nc2ccccc2[nH]1` [Compound 5f, N-(1H-Benzo[d]Imidazol-2-yl)-4-(Naphthalen-2-yl)Butanamide] came in with a melting point of 56 to 58 °C. Moreover, the inhibition at 3 µM in data set [1] worked out at 66%.

Turning to `COC(CCc1ccc2ccccc2c1)Nc1nc2ccc(OC(F)(F)F)cc2s1` (centres unmarked) [Compound 18g, N-(1-Methoxy-3-(Naphthalen-2-yl)Propyl)-6-(Trifluoromethoxy)Benzo[d]Thiazol-2-Amine], the melting point is 78 to 80 °C.

Broadly, the inhibition is the change of the read-out against control, counted positive when it falls. The term melting point denotes the temperature, or range, at which the solid turns liquid.

These data come from publication PMC8961538, “N-Acylated and N-Alkylated 2-Aminobenzothiazoles Are Novel Agents That Suppress the Generation of Prostaglandin E2” (Biomolecules, 2022).
